The test system of this assay is rat model of hyperuricemia induced by adenine (100 mg/kg)+ethambutol (250 mg/kg). The experiment in a line: Rat model of hyperuricemia induced by adenine + ethambutol; serum UA, CREA, UREA. It is filed as in vivo. Here is the method:
40 rats were randomly divided into 5 groups with 8 rats in each group. The groups were as follows: Blank Group (Vehicle, ig); Model Group (Vehicle, ig); Positive control group (Allopurinol, 10 mg/kg, ig); Compound 1 group (Sevelamer carbonate, 250 mg/kg, ig); Compound 2 group (PAA polymer, 50 mg/kg, ig). Except for Blank group, rats in other groups were modeled according to the chronic modeling method. The modeling method was as follows: rats were given Adenine (100 mg/kg)+Ethambutol (250 mg/kg) by gavage, once a day, for 21 days. Animals in blank group and model group were given equal volume of normal saline by gavage. Animals in positive control group were given 10 mg/kg Alloalcohol by gavage, once in the first week, once in the second week, once a day for 3 days before sampling in the third week. Animals in each group were given intragastric administration once a day for 14 consecutive days from the 8th day of modeling. Blood samples were taken at Day 21 after modeling, and serum samples were separated and stored at −80[…] for biochemical detection.
After 21 days of modeling (14 days of drug treatment), blood samples were taken and serum separation was performed to detect three renal functions (UA, CREA and UREA) (See Table 1 and FIGS. 1a to 1c). Compound 1 is Sevelamer carbonate and Compound 2 is a polyallylamine-based copolymer having a general structure of formula (4) as described herein.

Setting [1] is: after 21 days of modeling, adenine + ethambutol model.
The mark [2] stands for this setting: serum, after 21 days of modeling (14 days of administration), ig, Allopurinol 10 mg/kg, Compound 1 250 mg/kg, Compound 2 50 mg/kg.

`Oc1ncnc2[nH]ncc12` [Allopurinol]: under setting [1], the “level of CREA compared with the model group (in words)” value is recorded as “significantly reduced”, the “level of UA compared with the model group (in words)” value is “significantly reduced” and the “level of UREA compared with the model group (in words)” value was “significantly reduced”. Further, under setting [2], the CREA was 54.73 ± 4.75 ^ μmol/L, the UA was 12.88 ± 6.01 µmol/L and the UREA stood at 5.82 ± 1.10 mmol/L.

The values are drawn from patent US12478638B2, “Polymers, compositions and methods for treating hyperuricemia” (WATERSTONE PHARMACEUTICALS (WUHAN) CO., LTD., priority 2021, dated 2025).
